Source: ChEMBL document CHEMBL3091428, “Synthesis and initial biological evaluation of substituted 1-phenylamino-2-thio-4,5-dimethyl-1H-imidazole derivatives” (Bioorg Med Chem Lett, 2013)
In brackets after ≈: the same amount, converted by molar mass.

Experiments:
MCF7 = assay: Cytotoxicity against human MCF7 cells assessed as cell growth after 48 hrs by SRB assay relative to control; type: functional
[1] = Cytotoxicity against human NCI-ADR-RES cells assessed as cell growth after 48 hrs by SRB assay relative to control; type: functional
SN12C = assay: Cytotoxicity against human SN12C cells assessed as cell growth after 48 hrs by SRB assay relative to control; type: functional
K562 = assay: Cytotoxicity against human K562 cells assessed as cell growth after 48 hrs by SRB assay relative to control; type: functional
HT-29 = assay: Cytotoxicity against human HT-29 cells assessed as cell growth after 48 hrs by SRB assay relative to control; type: functional
NCI-H23 = assay: Cytotoxicity against human NCI-H23 cells assessed as cell growth after 48 hrs by SRB assay relative to control; type: functional
MDA-MB-435 = assay: Cytotoxicity against human MDA-MB-435 cells assessed as cell growth after 48 hrs by SRB assay relative to control; type: functional
Pichia kudriavzevii = assay: Antimicrobial activity against Candida krusei ATCC 6258 after 24 hrs by broth microdilution method; type: functional; details: ATCC 6258, 24 h
Listeria monocytogenes = assay: Antimicrobial activity against Listeria monocytogenes ATCC 19115 after 24 hrs by broth microdilution method; type: functional; details: ATCC 19115, 24 h
BT-549 = assay: Cytotoxicity against human BT549 cells assessed as cell growth after 48 hrs by SRB assay relative to control; type: functional
SF-295 = assay: Cytotoxicity against human SF295 cells assessed as cell growth after 48 hrs by SRB assay relative to control; type: functional
786-0 = assay: Cytotoxicity against human 786-0 cells assessed as cell growth after 48 hrs by SRB assay relative to control; type: functional
COLO 205 = assay: Cytotoxicity against human COLO205 cells assessed as cell growth after 48 hrs by SRB assay relative to control; type: functional
Enterococcus faecalis = assay: Antimicrobial activity against Enterococcus faecalis ATCC 29212 after 24 hrs by broth microdilution method; type: functional; details: ATCC 29212, 24 h
T47D = assay: Cytotoxicity against human T47D cells assessed as cell growth after 48 hrs by SRB assay relative to control; type: functional
Candida albicans = assay: Antimicrobial activity against Candida albicans ATCC 90028 after 24 hrs by broth microdilution method; type: functional; details: ATCC 90028, 24 h
MDA-MB-231 = assay: Cytotoxicity against human MDA-MB-231 cells assessed as cell growth after 48 hrs by SRB assay relative to control; type: functional
MOLT-4 = assay: Cytotoxicity against human MOLT4 cells assessed as cell growth after 48 hrs by SRB assay relative to control; type: functional
Nakaseomyces glabratus = assay: Antimicrobial activity against Candida glabrata ATCC 90030 after 24 hrs by broth microdilution method; type: functional; details: ATCC 90030, 24 h
SF-268 = assay: Cytotoxicity against human SF268 cells assessed as cell growth after 48 hrs by SRB assay relative to control; type: functional
Artemia salina [2] = assay: Toxicity in brine shrimp larvae assessed as mortality at 100 ug/ml after 24 hrs; type: organism-based; details: in vivo
Artemia salina [3] = assay: Toxicity in brine shrimp larvae assessed as mortality at 50 ug/ml after 24 hrs; type: organism-based; details: in vivo
[4] = Toxicity in brine shrimp larvae assessed as mortality after 24 hrs; type: organism-based; details: artemia salina, in vivo

Compound `Cc1nc(SCC(=O)c2ccc(Cl)cc2)n(Nc2ccccc2)c1C` has an Activity (MCF7) of 88.08%, an Activity [1] of 93.39% and an Activity (SN12C) of 93.18%. The Activity (K562) was 88.1%, the Activity (HT-29) was 99.26% and the Activity (NCI-H23) was 89.25%. The Activity (MDA-MB-435) was 99.36%, the MIC (Pichia kudriavzevii) was 200 µg/mL (≈ 538 µM) and the MIC (Listeria monocytogenes) was 400 µg/mL (≈ 1080 µM). For the same compound, the Activity (BT-549) was 104.7%, the Activity (SF-295) was 89.88% and the Activity (786-0) was 97.67%. For the same compound, the Activity (COLO 205) was 96.15%, the MIC (Enterococcus faecalis) was 200 µg/mL (≈ 538 µM) and the Activity (T47D) was 79.51%. It also gave an MIC (Candida albicans) of 200 µg/mL (≈ 538 µM), an Activity (MDA-MB-231) of 95.48% and an Activity (MOLT-4) of 87.31%. For the same compound, the MIC (Nakaseomyces glabratus) was 400 µg/mL (≈ 1080 µM) and the Activity (SF-268) was 103.9%.
`COc1ccc(C(=O)CSc2nc(C)c(C)n2Nc2ccccc2)cc1` showed an Activity (MCF7) of 105.7%, an Activity [1] of 83.61% and an Activity (SN12C) of 98.88%. The Activity (K562) was 87.79%, the Activity (HT-29) was 94.25% and the Activity (NCI-H23) was 88.38%. For the same compound, the Activity (MDA-MB-435) was 95.25%, the MIC (Pichia kudriavzevii) was 800 µg/mL (≈ 2180 µM) and the MIC (Listeria monocytogenes) was 800 µg/mL (≈ 2180 µM). The Activity (BT-549) was 84.66%, the Activity (SF-295) was 90.39% and the Activity (786-0) was 90.03%. The Activity (COLO 205) was 100.5%, the MIC (Enterococcus faecalis) was 400 µg/mL (≈ 1090 µM) and the Activity (T47D) was 71.62%. For the same compound, the MIC (Candida albicans) was 400 µg/mL (≈ 1090 µM), the Activity (MDA-MB-231) was 89.05% and the Activity (MOLT-4) was 89.96%. For the same compound, the MIC (Nakaseomyces glabratus) was 800 µg/mL (≈ 2180 µM) and the Activity (SF-268) was 104.5%.
In the case of `Cc1nc(SCC(=O)c2ccccc2)n(Nc2ccccc2)c1C`, the Activity (MCF7) is reported as 96.9%, the Activity [1] is reported as 96.87% and the Activity (SN12C) is reported as 99.9%. The Activity (K562) was 89.68%, the Activity (HT-29) was 97.65% and the Activity (NCI-H23) was 93.43%. For the same compound, the Activity (MDA-MB-435) was 97.36%, the MIC (Pichia kudriavzevii) was 400 µg/mL (≈ 1190 µM) and the MIC (Listeria monocytogenes) was 800 µg/mL (≈ 2370 µM). For the same compound, the Activity (BT-549) was 88.93%, the Activity (Artemia salina [2]) was “Non-toxic” and the Activity (SF-295) was 86.98%. For the same compound, the Activity (786-0) was 106.4%, the Activity (COLO 205) was 110.9% and the MIC (Enterococcus faecalis) was 800 µg/mL (≈ 2370 µM). The Activity (Artemia salina [3]) was “Non-toxic”, the Activity (T47D) was 85.54% and the MIC (Candida albicans) was 400 µg/mL (≈ 1190 µM). The Activity (MDA-MB-231) was 98.84%, the Activity (MOLT-4) was 100.2% and the MIC (Nakaseomyces glabratus) was 800 µg/mL (≈ 2370 µM). The Activity (SF-268) was 101.9% and the LC50 at 24 h [4] was > 1600 µg/mL.
